Test results taken from the NIST ThermoML archive (doi:10.1016/j.jct.2005.06.013).
± gives the expanded uncertainty stated by the source.

Settings: 298.15 K; 101.33 kPa; Crystal; mass and volume measurments

SMILES: Oc1cccnc1O [2,3-dihydroxypyridine]
- mass density: 1130 ± 20 kg/m3
